Here are results for 8 molecules from patent US10426800B2, “Adipose tissue-derived stem cells for veterinary use” (CELL4VET CORPORATION, priority 2008, dated 2019).

Common to all, as to assay type: cell-based, rat
Experiment [1] has as its system RADSC-1 cells. The experiment is described as follows: Effect of FGFR inhibitor on ADSC endothelial differentiation (LDL-uptake). Particulars: EGM2 or FGF2/vitamin C-supplemented EBM2, in the presence of PD173074. As to the method: RADSC-1 cells were grown in EGM2 or EBM2 supplemented with FGF2 and vitamin C in the presence or absence of FGFR inhibitor PD173074. The cells were then assayed for LDL-uptake. […] RADSC-1 cells were also grown in VEGF/vitamin C-supplemented EBM2 for the purpose of excluding the involvement of VEGF signaling, as PD173074 is known to have a weak inhibitory effect on VEGF receptor. Experiments were repeated 3 times.

For experiment [2], the system named is RADSC-1 cells. The experiment can be described thus: LDL-uptake of ADSC grown in subtraction or addition EGM2/EBM2 media. The conditions noted are these: for ADSC's LDL-uptake ability in EBM2 supplemented with the factor: one week in addition medium; for ADSC's LDL-uptake ability on omission of the factor from EGM2: one week in subtracted EGM2 medium. The source says: Each partially supplemented EGM2 is indicated by the omitted factor; for example, “-FGF” denotes EGM2 without FGF2. Experiments were repeated 3 times.
Experiments were repeated 3 times.
EGM2 medium is supplied by the manufacturer in the form of a basal medium (EBM2) and individual vials of supplemental factors. […] Specifically, we prepared “subtraction” EGM2 media by omitting one supplemental factor at a time.

The next experiment has as its system ADSC. The experiment is described as follows: EdU labeling of ADSC in vitro. As to the method:
FIG. 9 depicts dosage effect. EdU was added to ADSC at 0, 10, 20, and 50 μM. Cellular location was identified by DAPI staining of the nucleus (which would be blue if color photos were used). EdU was detected by Alexa 594 (which would be red if color photos were used).
FIG. 10 show the results of a time-course study. ADSC were labeled with 10 μM EdU and then split at 1 day, 4 days, 7 days, 14 days, and 21 days. […] Higher magnification (1000×) of cells at day 21 is shown in panel C.
ADSCs were grown on glass coverslips in DMEM supplemented with 10% bovine calf serum, penicillin, and streptomycin. For dosage effect, EdU was added to the culture media at 0, 10, 20 and 50 μM. Twenty-four hours later, cells were washed with PBS followed by addition of regular culture media (FIG. 9). For time-course study, ADSC were labeled with 10 μM EdU and then split at 1 day, 4 days, 7 days, 14 days and 21 days (FIG. 10).
After methanol fixation, cells were washed twice with PBS and then incubated in 3% BSA in PBS followed by 0.5% Triton® X-100 in PBS for 20 minutes at room temperature. The cells were then incubated with freshly made Click-it reaction cocktail (Invitrogen) for 30 minutes at room temperature in the dark. Cells were counterstained with DAPI, mounted in standard mounting media and imaged by fluorescence microscopy.

In the case of `CCN(CC)CCCCNc1ncc2cc(-c3cc(OC)cc(OC)c3)c(NC(=O)NC(C)(C)C)nc2n1` [PD173074], the “acquisition of LDL-uptake ability” value with RADSC-1 cells [1] is “unable to do so”.
Take “FGF2: growth factor, supplemental factor of EGM2 medium”: in the experiment with RADSC-1 cells [2], the “ADSC's LDL-uptake ability in EBM2 supplemented with the factor” value is recorded as “still effective, albeit at a reduced level” and the “ADSC's LDL-uptake ability on omission of the factor from EGM2” value (“ADSC's LDL-uptake ability on omission” for short) is “greatly diminished”.
Regarding heparin, in the experiment with RADSC-1 cells [2], the “ADSC's LDL-uptake ability on omission” value is listed as “essentially no effect”.
In the case of `C[C@]12CCC(=O)C=C1CC[C@@H]1[C@@H]2[C@@H](O)C[C@@]2(C)[C@H]1CC[C@]2(O)C(=O)CO` [hydrocortisone], in the experiment with RADSC-1 cells [2], the “ADSC's LDL-uptake ability on omission” value is “essentially no effect”.
In the case of `O=C1O[C@H]([C@@H](O)CO)C(O)=C1O` [vitamin C], in the experiment on RADSC-1 cells [2], the “ADSC's LDL-uptake ability in EBM2 supplemented with the factor” value is “still somewhat effective, but at a much reduced level” and the “ADSC's LDL-uptake ability on omission” value is “greatly diminished”.
In the case of VEGF, the “ADSC's LDL-uptake ability on omission” value in the experiment on RADSC-1 cells [2] was “essentially no effect”.
Take “EGF: growth factor, supplemental factor of EGM2 medium”: the “ADSC's LDL-uptake ability on omission” value in the experiment with RADSC-1 cells [2] is “essentially no effect”.
`C#Cc1cn([C@H]2C[C@H](O)[C@@H](CO)O2)c(=O)[nH]c1=O` [EdU, 5-ethynyl-2-deoxyuridine]: the “EdU signal in the positively labeled cells” value in the experiment with ADSC (10 μM EdU, 1 to 21 days, P<0.01) is reported as “decreased with time”. Further, the “cells EdU-labeled” value in the experiment on ADSC (EdU 10, 20, 50 μM, regardless of concentration) is “approximately 50%”.
